The values that follow come from patent publication US20080269179A1, “Use of Megestrol Acetate for the Treatment of Obstructive Pulmonary Diseases” (priority 2005, published 2008).

Series [1] deals with lung of infarction surgery rats. In words: Histopathology of the lungs in rat infarct model. Type of series: in vivo, Male Wistar-rats. Here is the method:
(§1) An animal study was carried out, wherein a ligation of the left coronary artery was performed in 140 animals. For control 20 animals were operated without coronary ligature (sham-surgery). Two weeks after surgery, therapy was started. Therefore, the animals were treated with a diuretic (furosemide, in average 10 per kg in drinking water). After six weeks double-blind randomised therapy with either placebo, old or new megestrol acetate (from day 42 on using gavage, 100 mg per kg) or ACE-inhibitor (Ramipril®, 1 mg per kg per day) was started. The infarct groups consisted of 38 animal each for Ramipril® and placebo, 37 for MA-1 and 40 for MA-II, as well as 5 animals per sham group. During the therapy animals were weighed twice a week. On day 224 after surgery animals were sacrificed and the lung was analyzed regarding weight and histopathology.
(§2) The animals underwent surgical treatment at a weight of about 210-220 g. In order to produce a heart insufficiency the inventors performed the surgical treatment in accordance with an infarction model that was already used in several prior studies. The heart infarction is produced according to a slightly modified method described by Selye et al. [Selye H, Bajusz E, Grassos S, Mendel P. Simple techniques for the surgical occlusion of coronary vessels in the rat. Angiology 1960; 11: 398-407] by ligation of the LAD.
(§3) Each rat was anaesthetised by i.p. chloralhydrate (Merck, Darmstadt, Germany) and was subsequently incubated with a PE-catheter (1.2 mm diameter) and respirated using a Rodent-respirator V5K6 (NarcoBio Systems, Houston, Tex., USA). During the whole operation an ECG was performed as control. The thorax was opened, the heart was prepared and a ligature using Ethibond-suture material 7/0 (Ethicon GmbH Norderstedt, Germany) was made in position of the left coronary artery (LAD). Since the coronary arteries during this process can not be viewed by the naked eye, the orientation occurred anatomically based on the position of the heart and the visible coronary veins. The success of the infarction could be visually verified based on the occurring paleness, cyanosis and mobility distortion. Subsequently, the thorax was closed. The respiration was ended, once a stable ECG was reached. 20 rats were used as control animals and were surgically treated in the same manner as the infarction animals. No coronary ligature was introduced in these animals (sham-surgery).
After the surgery, the animals were controlled and the weight was analysed twice a week during the whole study. From day 14 on, the animals received furosemide, accompanied from day 42 on with either placebo, ACE-inhibitor, MA-I or MA-TI. On day […] post-surgery the animals were randomised and segregated into the respective groups. During therapy animals were weighted twice a week and on day 224 post-surgery animals were sacrificed to analyze organs.
MA-I, MA-II, ACE-inhibitor (Ramipril®) or control substances were administered to the animals via gavage. Depending on the time of surgery, the animals were gavaged stating from week six after the in infarction surgery once a day, whereby the amount of gavage was adjusted to the weight (100 mg MA-I/kg body weight per day, 1 ml solution contains 40 mg MA-I or MA-II or placebo, respectively).
In the 32st week post-surgery, the surviving animals were anaesthetised using chloralhydrate i.p. […] body weight (Sigma-Aldrich Chemie GmbH, Deisenhofen, Germany). Following the preparation of the subscapular brown fatty tissue, lapratomisation was performed and blood was drawn from the aorta abdominalis into EDTA-flushed 10 ml syringes (Roth, Karlsruhe, Germany) and added to pre-chilled 12 ml-tubes (Sarstedt, Nümbrecht, Germany). The following parts were removed completely or partially: lung, heart, liver, kidneys, renal glands, inguinal fatty tissue, epididymal fatty tissue, gastrocnemius, and brain. […]

For series [2], the system named is rat myocardial infarct model. In words: Mortality / survival in rat myocardial infarct model of heart failure. It counts as in vivo, rats. Here is the method:
(§4) In another study, a similar rat myocardial infarct model as above was used in order to assess the therapeutic potential of MA in heart failure.
(§5) Methods: From day 14 after surgery (LAD occlusion), rats received frusemide. On day 42, rats were randomized to receive 26 weeks treatment with placebo (PL: n=38), ramipril (n=38, 1 mg/kg/d), the standard MA formulation (MA-I: n=37) or a new nanocristal MA formulation (MA-II: n=40, both 100 mg/kg/d) until sacrifice, Cardiac function was assessed using echocardiography. Additionally, body composition was analyzed boy NMR-scanning, and in a subgroup cardiac function was assessed by MRI scanning and invasive hemodynamics.

The subject of series [3] is lung of infarction surgery rats. The series can be described thus: Lung wet weight and amount of liquid in the lung in rat infarct model. It counts as in vivo, Male Wistar-rats. The procedure: as §1
The animals underwent surgical treatment at a weight of about 210-220 g. In order to produce a heart insufficiency the inventors performed the surgical treatment in accordance with an infarction model that was already used in several prior studies. […]
(§6) After the surgery, the animals were controlled and the weight was analysed twice a week during the whole study. […]

Series [4] is described as follows: Weight determinations in rat infarct model of chronic heart insufficiency. It counts as in vivo, Male Wistar-rats. Particulars: day 224 after surgery. Here is the method:
as §1
Male Wistar-rats (Dimed GmbH, Schönwalde, Germany) were held in an environment controlled animal facility having a constant temperature of 23° C. in a 12 hour day-night-cycle.
as §2
as §3, with “The respiration was ended, once a stable ECG was reached. 20 rats were used as control animals and were surgically treated in the same manner as the infarction animals. No coronary ligature was introduced in these animals (sham-surgery).” left out
as §6
During the progression of both studies; the animals were weight-determined twice a week, starting from the date of surgery (laboratory balance model CS2000. Ohaus Corporation, Pine Brook, N.J., USA). The results were calculated corresponding to the post-surgical day of the respective animal. […]

A short description of series [5]: Body weight, body composition (NMR-scanning) and tibia length in rat myocardial infarct model. Type of series: in vivo, rats. Particulars: 26 weeks treatment. Here is the method:
as §4, §5

Series [6] concerns rat myocardial infarct model. The series can be described thus: Cardiac function (echocardiography) in rat myocardial infarct model. The settings on record: 26 weeks treatment. Type of series: in vivo, rats. The procedure: as §4, §5
Where [7] appears, read: infarct animals, around the great respiratory tracts, day 224.
Setting [8] is: infarct animals, great respiratory tracts, day 224.

For the compound “17-α-acetoxy-6-methylpregna-4,6diene-3,20-dione [Megestrol acetate]”, the “inflammation and mucus goblet cells of the lung (histopathology, in words)” value in series [1] (infarct rats, vs placebo and Ramipril groups) is “a reduction in the number of mucus goblet cells and a reduced inflammation of the lung”. For the same compound, the “survival in infarction surgery rats” value in series [2] (in comparison to placebo) is “significantly improved the survival”.

On to `CCOC(=O)[C@H](CCc1ccccc1)N[C@@H](C)C(=O)N1[C@H](C(=O)O)C[C@@H]2CCC[C@@H]21` [Ramipril], for which, in series [1] (setting [7]), the “Inflammation: number of animals graded little” value is 1, the “Inflammation: number of animals graded medium” value stood at 2, the “Inflammation: number of animals graded strong” value is 2 and the “Inflammation: number of animals graded very strong” value stood at 18. Moreover, in series [1] (setting [8]), the “Mucus goblet cells: number of animals graded medium” value is 7, the “Mucus goblet cells: number of animals graded strong” value was 6 and the “Mucus goblet cells: number of animals graded very strong” value is listed as 10. Moreover, in series [1] (infarct animals, lung, day 224), the “Emphysema: number of animals graded little” value is given as 3, the “Emphysema: number of animals graded medium” value is reported as 6, the “Emphysema: number of animals graded none” value came to 8 and the “Emphysema: number of animals graded strong” value was 4. Also, in series [1] (infarct animals, lung, day 224), the “Emphysema: number of animals graded very strong” value is 2, the “Fibrosis: number of animals graded little” value is 5, the “Fibrosis: number of animals graded medium” value came to 4 and the “Fibrosis: number of animals graded none” value is 12. In addition, the “Fibrosis: number of animals graded strong” value in series [1] (infarct animals, lung, day 224) was 2. In series [3], the “average weight of the liquid in the lung” value amounted to 2396 mg and the “average wet weight of the lung” value amounted to 3103 ± 281 mg. In addition, the “Weight of animals normalised to tibia length at the end of the study (mean)” value in series [4] (infarct animals) was found to be 133.2 g/cm tibia. Moreover, the “Weight of animals at the end of the study (mean)” value in series [4] (infarct animals, gavage from day 42, MA 100 mg/kg/d, ramipril 1 mg/kg/d) is recorded as 575.0 g. In addition, in series [4] (sham-surgery animals), the “Weight of animals at the end of the study (mean)” value was 567.2 g and the “Weight of animals normalised to tibia length at the end of the study (mean)” value stood at 135.0 g/cm tibia. Besides, the “Body weight, end of study” value in series [5] (MA 100 mg/kg/d, ramipril 1 mg/kg/d, in g) is recorded as 575 ± 8. In series [5] (NMR-scanning), this compound registered a Fat/tibia of 45.3 ± 5.9 g/cm and a Lean/tibia of 83.2 ± 2.5 g/cm. For the same compound, in series [5] (retarded growth), the tibia length is listed as 4.3 cm. Besides, in series [6], the CO/BW is 178 ± 8^$ ml/min/kg and the EF turned out to be 40 ± 2%. The Mortality in series [2] (26 weeks treatment from day 42, MA 100 mg/kg/d, ramipril 1 mg/kg/d) amounted to 13%.
